“And” between values parts separate entries of the source, which are not always exact repeats. Identical values can stand only once. Inconclusive results and toxic doses are left out.

The subject of the experiment is P388 leukemia ip, CD2F1 mice, survival T/C. Briefly: NCI In Vivo Anticancer Drug Screen. Data for tumor model P388 Leukemia (intraperitoneal) in CD2F1 (CDF1) mice. The settings on record: endpoint: median survival time, higher = longer survival. In a few lines:
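Mice carrying the transplanted tumor received test compound or vehicle. Survival was recorded in each group, and the value is the treated-group measurement divided by that of the vehicle-treated control group.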

[1] abbreviates: dose: 12.5 mg/kg/injection, schedule: Q01DX009 (ip), vehicle: saline with Tween-80.
Setting [2] is: dose: 12.5 mg/kg/injection, schedule: Q01DX005 (ip), vehicle: Klucel (hydroxypropylcellulose) (HPC).
Setting [3] is: dose: 25.0 mg/kg/injection, schedule: Q01DX005 (ip), vehicle: Klucel (hydroxypropylcellulose) (HPC).
Setting [4] is: dose: 50.0 mg/kg/injection, schedule: Q01DX005 (ip), vehicle: Klucel (hydroxypropylcellulose) (HPC).
Setting [5] is: dose: 12.5 mg/kg/injection, schedule: Q01DX009 (ip), vehicle: Klucel (hydroxypropylcellulose) (HPC).
[6] abbreviates: dose: 25.0 mg/kg/injection, schedule: Q01DX009 (ip), vehicle: Klucel (hydroxypropylcellulose) (HPC).
The mark [7] stands for this setting: dose: 50.0 mg/kg/injection, schedule: Q01DX005 (ip), vehicle: saline with Tween-80.
Setting [8] is: dose: 100.0 mg/kg/injection, schedule: Q01DX009 (ip), vehicle: saline with Tween-80.
Where [9] appears, read: dose: 200.0 mg/kg/injection, schedule: Q01DX009 (ip), vehicle: saline with Tween-80.
The mark [10] stands for this setting: dose: 400.0 mg/kg/injection, schedule: Q01DX009 (ip), vehicle: saline with Tween-80.
Setting [11] is: dose: 100.0 mg/kg/injection, schedule: Q01DX005 (ip), vehicle: saline with Tween-80.
[12] abbreviates: dose: 25.0 mg/kg/injection, schedule: Q01DX009 (ip), vehicle: saline with Tween-80.
Setting [13] is: dose: 50.0 mg/kg/injection, schedule: Q01DX009 (ip), vehicle: saline with Tween-80.
[14] abbreviates: dose: 50.0 mg/kg/injection, schedule: Q01DX005 (ip), vehicle: saline.
[15] abbreviates: dose: 100.0 mg/kg/injection, schedule: Q04DX003 (ip), vehicle: saline with Tween-80.
The mark [16] stands for this setting: dose: 200.0 mg/kg/injection, schedule: Q04DX003 (ip), vehicle: saline with Tween-80.
[17] abbreviates: dose: 400.0 mg/kg/injection, schedule: Q04DX003 (ip), vehicle: saline with Tween-80.

In the case of `CCN=C(N)Nc1ccc(NC(=O)c2ccc(C(=O)Nc3ccc(NC(N)=NCC)cc3)cc2)cc1`, the T/C by setting is: (dose: 3.13 mg/kg/injection, schedule: Q01DX009 (ip), vehicle: saline with Tween-80) 163 % of control; (dose: 3.13 mg/kg/injection, schedule: Q04DX003 (ip), vehicle: saline with Tween-80) 113 % of control; (dose: 6.25 mg/kg/injection, schedule: Q01DX009 (ip), vehicle: saline with Tween-80) 168 % of control; (dose: 6.25 mg/kg/injection, schedule: Q04DX003 (ip), vehicle: saline with Tween-80) 122 % of control; under setting [1], 109 % of control and 113 % of control; (dose: 25.0 mg/kg/injection, schedule: Q04DX003 (ip), vehicle: saline with Tween-80) 200 % of control. The T/C (dose: 50.0 mg/kg/injection, schedule: Q04DX003 (ip), vehicle: saline with Tween-80) was 181 % of control.

As to `Cc1cc(N/N=C/c2ccc(Cl)cc2)c2cc3c(cc2n1)OCO3`, the T/C by setting is: under setting [2], 98 % of control; under setting [3], 103 % of control; under setting [4], 102 % of control and 95 % of control.

In the case of `Cc1ccc(C(C)(C)C[P+](C)(c2ccccc2)c2ccccc2)cc1`, the T/C is 105 % of control under setting [5] and 103 % of control under setting [6].

Consider `CC(=O)C[n+]1ccccc1Sc1ccccc1C`, for which the T/C under setting [7] was 103 % of control.

On to `CN(C)S(=O)(=O)CCNC(=O)N(CCCl)N=O`, for which the T/C was 100 % of control (dose: 2.5 mg/kg/injection, schedule: Q01DX005 (ip), vehicle: saline); 104 % of control (dose: 5.0 mg/kg/injection, schedule: Q01DX005 (ip), vehicle: saline); 119 % of control and 218 % of control (dose: 10.0 mg/kg/injection, schedule: Q01DX005 (ip), vehicle: saline); 203 % of control and 250 % of control (dose: 20.0 mg/kg/injection, schedule: Q01DX005 (ip), vehicle: saline).

In the case of `CCOC(=O)c1cc(=O)n(C)c2ccc(OCC)cc12`, the T/C was 90 % of control under setting [8], 95 % of control under setting [9] and 90 % of control under setting [10].

Regarding `O=C1Nc2ccccc2C12Nc1ccccc1S2` (stereo not drawn), the T/C runs as follows: under setting [7], 100 % of control; under setting [11], 101 % of control; (dose: 200.0 mg/kg/injection, schedule: Q01DX005 (ip), vehicle: saline with Tween-80) 110 % of control.

As to `NC(=O)NC(N)=S`, the T/C is 100 % of control under setting [12], 105 % of control under setting [13], 99 % of control under setting [8] and 98 % of control under setting [9].

On to `CCCCN=C(N=C(N)N)NCC`, for which the T/C by setting is: under setting [14], 102 % of control; (dose: 100.0 mg/kg/injection, schedule: Q01DX005 (ip), vehicle: saline) 102 % of control.

As to `CCCCCC(C)COS(=O)(=O)c1ccc([N+](C)(C)C)cc1` (stereo not drawn), the T/C runs as follows: under setting [1], 102 % of control; under setting [12], 103 % of control; under setting [13], 105 % of control.

Consider `Nc1ncc2[nH]c(N)nc2n1`, for which the T/C is, setting by setting: under setting [2], 106 % of control; under setting [3], 97 % of control; under setting [4], 104 % of control and 107 % of control.

Regarding `COC(=O)/C(Br)=C/N(Cc1ccccc1)Cc1ccccc1`, the T/C by setting is: under setting [8], 110 % of control; under setting [15], 95 % of control; under setting [9], 100 % of control; under setting [16], 95 % of control; under setting [10], 110 % of control; under setting [17], 95 % of control.

On to `COCC(=O)c1ccc(Cl)cc1`, for which the T/C (dose: 50.0 mg/kg/injection, schedule: Q01DX009 (ip), vehicle: saline) was 105 % of control; the T/C (dose: 100.0 mg/kg/injection, schedule: Q01DX009 (ip), vehicle: saline) is 110 % of control and 96 % of control; the T/C (dose: 200.0 mg/kg/injection, schedule: Q01DX009 (ip), vehicle: saline) was 105 % of control and 107 % of control.

`O=C(Nc1ccccc1)OCC(Cl)(Cl)Cl`: the T/C is 100 % of control under setting [8], 100 % of control under setting [9] and 119 % of control under setting [10].

For `COc1cccc2c1C(=O)c1c(O)c3c(c(O)c1C2=O)C[C@@](O)(C(=O)COC(=O)Cc1ccccc1)C[C@@H]3OC1CC(N)C(O)C(C)O1` (stereo partly drawn), the T/C reads like this: (dose: 1.0 mg/kg/injection, schedule: Q01DX009 (ip), vehicle: saline with Tween-80) 166 % of control and 194 % of control; (dose: 1.32 mg/kg/injection, schedule: Q01DX009 (ip), vehicle: saline sonified) 195 % of control; (dose: 2.0 mg/kg/injection, schedule: Q01DX009 (ip), vehicle: saline sonified) 215 % of control; (dose: 2.0 mg/kg/injection, schedule: Q01DX009 (ip), vehicle: saline with Tween-80) 151 % of control and 166 % of control and 212 % of control; (dose: 3.0 mg/kg/injection, schedule: Q01DX009 (ip), vehicle: saline sonified) 270 % of control; (dose: 16.0 mg/kg/injection, schedule: Q01DX009 (ip), vehicle: saline with Tween-80) 105 % of control.

On to `O=S(=O)(NCc1ccccc1)c1ccccc1`, for which the T/C by setting is: under setting [5], 104 % of control; under setting [6], 94 % of control; (dose: 50.0 mg/kg/injection, schedule: Q01DX009 (ip), vehicle: Klucel (hydroxypropylcellulose) (HPC)) 95 % of control; (dose: 100.0 mg/kg/injection, schedule: Q01DX009 (ip), vehicle: Klucel (hydroxypropylcellulose) (HPC)) 104 % of control; (dose: 200.0 mg/kg/injection, schedule: Q01DX009 (ip), vehicle: Klucel (hydroxypropylcellulose) (HPC)) 106 % of control.

Regarding `CC(=O)/C(=C\c1ccc(Cl)c(Cl)c1)C(=O)CCN(C)C`, the T/C (dose: 12.5 mg/kg/injection, schedule: Q01DX005 (ip), vehicle: saline) is 110 % of control and 117 % of control; the T/C (dose: 25.0 mg/kg/injection, schedule: Q01DX005 (ip), vehicle: saline with Tween-80) is 117 % of control; the T/C (dose: 25.0 mg/kg/injection, schedule: Q01DX005 (ip), vehicle: saline) is 100 % of control and 107 % of control; the T/C under setting [14] was 110 % of control and 111 % of control; the T/C under setting [11] was 151 % of control.

`CCOC(=O)C1CC1(C(=O)OCC)C(=O)OCC` (stereo not drawn): the T/C was 96 % of control under setting [15], 97 % of control under setting [16] and 92 % of control under setting [17].

Turning to `NC(CCl)=NCC1C2CC3CC(C2)CC1C3` (stereo not drawn), the T/C by setting is: (dose: 7.5 mg/kg/injection, schedule: Q01DX005 (ip), vehicle: saline with Tween-80) 107 % of control and 116 % of control and 120 % of control; (dose: 15.0 mg/kg/injection, schedule: Q01DX005 (ip), vehicle: saline with Tween-80) 122 % of control; (dose: 30.0 mg/kg/injection, schedule: Q01DX005 (ip), vehicle: saline with Tween-80) 117 % of control.

Turning to `Cc1cccc(/C(=C\c2ccc([N+](=O)[O-])cc2)C(=O)Nc2ccc(S(=O)(=O)F)c(C)c2)c1`, the T/C was 88 % of control (dose: 60.0 mg/kg/injection, schedule: Q01DX005 (ip), vehicle: Klucel (hydroxypropylcellulose) (HPC)) and 86 % of control (dose: 120.0 mg/kg/injection, schedule: Q01DX005 (ip), vehicle: Klucel (hydroxypropylcellulose) (HPC)).

For the compound `O=C1c2sccc2[C@H](NC(=O)C(F)(F)F)[C@@H]1Cl`, the T/C (dose: 60.0 mg/kg/injection, schedule: Q01DX005 (ip), vehicle: saline with Tween-80) was 100 % of control; the T/C (dose: 120.0 mg/kg/injection, schedule: Q01DX005 (ip), vehicle: saline with Tween-80) is 100 % of control; the T/C (dose: 240.0 mg/kg/injection, schedule: Q01DX005 (ip), vehicle: saline with Tween-80) was 100 % of control.

As to `CC(=O)OCc1c(-c2ccccc2)nc2n1CCS2`, the T/C reads like this: (dose: 12.5 mg/kg/injection, schedule: Q01DX001 (ip), vehicle: Klucel (hydroxypropylcellulose) (HPC)) 101 % of control and 95 % of control; (dose: 25.0 mg/kg/injection, schedule: Q01DX001 (ip), vehicle: Klucel (hydroxypropylcellulose) (HPC)) 114 % of control and 106 % of control; (dose: 50.0 mg/kg/injection, schedule: Q01DX001 (ip), vehicle: Klucel (hydroxypropylcellulose) (HPC)) 108 % of control and 107 % of control; (dose: 100.0 mg/kg/injection, schedule: Q01DX001 (ip), vehicle: Klucel (hydroxypropylcellulose) (HPC)) 86 % of control.

The values are drawn from PubChem BioAssay AID330 (DTP/NCI, 2004).
